These are literature values, as cited in publication PMC12125103 (Naunyn-Schmiedeberg's Archives of Pharmacology, 2024).

For etelcalcetide [Parsabiv], the “maximum single dose in healthy humans for safe tolerance” value is recorded as 10 mg.
